Key:
ETA receptor = target: T1, ETA receptor (Sus scrofa, UniProt Q29010); assay: binding of 125I-ET-1 to crude receptor membrane fraction from the porcine thoracic aorta (ETA); conditions: porcine thoracic aorta membranes, 125I-ET-1, 25° C., 120 minutes, pH 7.0
T1 construct: crude receptor membrane fraction from the porcine thoracic aorta; from tissue; host or cells: porcine thoracic aorta, crude membrane fraction
T1 sequence (Q29010 21-427): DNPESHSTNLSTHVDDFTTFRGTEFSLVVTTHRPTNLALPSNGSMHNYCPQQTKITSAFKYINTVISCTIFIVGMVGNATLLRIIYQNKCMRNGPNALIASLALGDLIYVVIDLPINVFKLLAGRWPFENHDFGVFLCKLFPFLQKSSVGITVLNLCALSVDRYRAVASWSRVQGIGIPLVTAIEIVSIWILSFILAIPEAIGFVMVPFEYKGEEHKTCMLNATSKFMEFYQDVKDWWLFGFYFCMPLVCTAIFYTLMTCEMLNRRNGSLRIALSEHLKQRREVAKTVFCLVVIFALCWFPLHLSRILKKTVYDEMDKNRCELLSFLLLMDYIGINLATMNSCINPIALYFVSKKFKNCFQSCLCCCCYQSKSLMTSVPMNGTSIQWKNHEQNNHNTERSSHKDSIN
Protocol: (§1) (1) Measurement of Antagonism to Endothelin Receptors
(§2) Among the endothelin (ET) receptor subtypes, the binding of ET to the ETA and ETB subtypes was measured by using a crude receptor membrane fraction from the porcine thoracic aorta and a crude receptor membrane fraction from the human placenta, respectively. The tissue (about 40 g) as washed, minced with scissors, and homogenized in 4 volumes of solution A [20 mM HEPES (N-2-hydroxyethylpiperazine-N'-2-ethanesulfonic acid), 3 mM EGTA (ethylene glycol bis(β-aminoethyl ether)-N,N,N',N'-tetraacetic acid), 5 mM EDTA (ethylenediaminetetraacetic acid), 2 μg/ml aprotinin, 3 μg/ml leupeptin, 3 μg/ml pepstatin A, 0.25 mg/ml bacitracin, 0.25 M sucrose] by means of an Ultra-turrax. The resulting homogenate was centrifuged at 8,000 g for 20 minutes, and the supernatant was further centrifuged at 80,000 g for 60 minutes. The precipitate was suspended in solution A and used as a crude receptor membrane fraction, which was divided into portions and stored in a frozen state at -70° C. As a radioligand, 325 Bq of ^125 I-ET-1 (81.4 TBq/mmol; manufactured by DuPont-New England Nuclear, Boston, Mss., U.S.A) was placed in a test tube. Then, the crude receptor membrane fraction (20 μg as protein) and a test compound were added thereto. Nonspecific binding was measured by the addition of 125 nM ET-1. The reaction was carried out in solution B [30 mM HEPES, 0.15 M NaCl, 5 mM MgCl2, 0.5 mg/ml bacitracin, 1 mg/ml bovine serum albumin, pH 7.0) at 25° C. for 120 minutes. In order to separate the free radioactive ligand from the membrane-bound one, the reaction mixture was quickly filtered through a glass filter treated with 0.3% polyethylene-imine (GF/C; manufactured by Whatman Inc., U.S.A.) and washed twice with ice-cold solution B. Thereafter, the radioactivity remaining on the filter was measured with a gamma counter.

ETB receptor = target: T2, ETB receptor (Homo sapiens, UniProt P24530); assay: binding of 125I-ET-1 to crude receptor membrane fraction from the human placenta (ETB); conditions: human placenta membranes, 125I-ET-1, 25° C., 120 minutes, pH 7.0
T2 construct: a crude receptor membrane fraction from the human placenta; from tissue; host or cells: human placenta, crude membrane fraction
T2 sequence (P24530 27-442): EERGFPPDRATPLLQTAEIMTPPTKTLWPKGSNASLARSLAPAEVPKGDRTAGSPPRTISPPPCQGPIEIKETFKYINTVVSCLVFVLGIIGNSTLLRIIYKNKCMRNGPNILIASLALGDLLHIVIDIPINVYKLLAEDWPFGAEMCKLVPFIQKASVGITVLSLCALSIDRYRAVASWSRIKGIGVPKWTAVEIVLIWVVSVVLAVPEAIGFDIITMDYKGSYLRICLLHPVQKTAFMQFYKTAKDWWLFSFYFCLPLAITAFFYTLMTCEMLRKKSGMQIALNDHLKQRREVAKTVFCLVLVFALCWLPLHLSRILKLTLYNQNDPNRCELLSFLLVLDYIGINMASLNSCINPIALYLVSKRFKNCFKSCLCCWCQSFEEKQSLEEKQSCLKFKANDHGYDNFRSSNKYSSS
Protocol: as §1, §2

phosphodiesterase III = target: T3, phosphodiesterase III (Cavia porcellus, UniProt H0VIU9); assay: inhibitory effect on phosphodiesterase III ([3H] cAMP conversion, enzyme fraction from guinea pig hearts); type: biochemical; conditions: for IC50: guinea pig heart enzyme, 0.1 μM [3H] cAMP, 30° C., 10 minutes, pH=8.0; for inhibitory effect on phosphodiesterase III: statement in words
T3 construct: hearts excised from male Hartley strain guinea pigs (400-600 g); from tissue; host or cells: guinea pig heart, 40,000 g supernatant, DEAE-cellulose fraction
T3 sequence (H0VIU9 1-1132): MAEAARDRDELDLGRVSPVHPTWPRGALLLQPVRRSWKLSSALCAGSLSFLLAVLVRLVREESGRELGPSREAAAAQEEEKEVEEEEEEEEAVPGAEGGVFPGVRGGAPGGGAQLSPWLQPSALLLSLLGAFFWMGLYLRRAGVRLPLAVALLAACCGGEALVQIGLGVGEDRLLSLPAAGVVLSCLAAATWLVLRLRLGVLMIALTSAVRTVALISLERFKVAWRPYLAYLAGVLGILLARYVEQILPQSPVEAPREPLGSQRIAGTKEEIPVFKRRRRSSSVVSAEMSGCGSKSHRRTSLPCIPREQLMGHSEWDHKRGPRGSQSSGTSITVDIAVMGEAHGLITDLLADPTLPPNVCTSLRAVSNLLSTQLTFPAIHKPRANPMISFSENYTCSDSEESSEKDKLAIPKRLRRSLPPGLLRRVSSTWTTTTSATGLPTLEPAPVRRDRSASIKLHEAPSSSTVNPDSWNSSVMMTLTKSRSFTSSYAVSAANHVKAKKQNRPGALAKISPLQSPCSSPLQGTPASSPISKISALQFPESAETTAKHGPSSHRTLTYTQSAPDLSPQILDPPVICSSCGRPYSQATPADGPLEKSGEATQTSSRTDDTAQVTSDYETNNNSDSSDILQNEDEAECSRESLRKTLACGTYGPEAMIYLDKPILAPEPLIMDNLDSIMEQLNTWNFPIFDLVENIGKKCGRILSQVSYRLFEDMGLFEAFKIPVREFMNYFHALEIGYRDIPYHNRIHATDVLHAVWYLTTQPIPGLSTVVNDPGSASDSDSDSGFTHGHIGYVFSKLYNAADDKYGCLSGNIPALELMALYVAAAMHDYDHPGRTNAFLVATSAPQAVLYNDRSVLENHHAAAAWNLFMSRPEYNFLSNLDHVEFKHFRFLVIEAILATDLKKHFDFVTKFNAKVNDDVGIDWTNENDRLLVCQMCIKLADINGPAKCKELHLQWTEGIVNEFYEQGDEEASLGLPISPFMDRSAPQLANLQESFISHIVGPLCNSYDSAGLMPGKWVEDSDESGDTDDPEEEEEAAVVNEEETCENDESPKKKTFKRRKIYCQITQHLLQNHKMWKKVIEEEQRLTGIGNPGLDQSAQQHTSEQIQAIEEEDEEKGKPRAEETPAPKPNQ
Protocol: Phosphodiesterase III was prepared according to the method of Frodsham et al. (Eur. J. Pharmacol., Vol. 211, pp. 383-391, 1992).
Specifically, hearts excised from male Hartley strain guinea pigs (400-600 g) were placed in 8 volumes of solution C [10 mM trishydroxymethyl)aminomethane-acetic acid buffer (pH=7.5), 2 mM magnesium chloride, 1 mM dithiothreitol, 2,000 units/ml aprotinin, 50 μM phenylmethylsulfonyl fluoride], minced with scissors, and homogenized three times for 10 seconds by means of a Polytron. The resulting homogenate was centrifuged at 40,000 g for 30 minutes, and the supernatant was applied onto a DEAE-cellulose column and eluted with a linear concentration gradient ranging from 0.2 M to 0.6 M sodium acetate (pH 6.5). The fractions eluted at 0.4-0.5 M were pooled and used as a phosphodiesterase III enzyme fraction.
Specifically, a test compound and the phosphodiesterase III enzyme fraction were added to 0.4 ml of a reaction solution [40 mM tris(hydroxymethyl)aminomethane-hydrochloric acid buffer (pH=8.0), 5 mM magnesium chloride, 1 mM dithiothreitol, 0.1 μM [^3 H] cAMP]. This mixture was reacted at 30° C. for 10 minutes. After completion of the reaction, 5'-nuclease was added thereto so as to convert [^3 H] 5'-AMP, which was the reaction product with phosphodiesterase III, to [^3 H] adenosine. Then, the [^3 H] cAMP and [^3 H] adenosine present in the reaction mixture were separated with the aid of an anion exchanger.

endothelin receptors = assay: antagonism to endothelin receptors (statement in words, no subtype); type: binding
Protocol: as §1
as §2, with “The precipitate was suspended in solution A and used as a crude receptor membrane fraction, which was divided into portions and stored in a frozen state at -70° C. As a radioligand, 325 Bq of ^125 I-ET-1 (81.4 TBq/mmol; manufactured by DuPont-New England Nuclear, Boston, Mss., U.S.A) was placed in a test tube. Then, the crude receptor membrane fraction (20 μg as protein) and a test compound were added thereto.” left out, “The reaction was carried out in solution B [30 mM HEPES, 0.15 M NaCl, 5 mM MgCl2, 0.5 mg/ml bacitracin, 1 mg/ml bovine serum albumin, pH 7.0) at 25° C. for 120 minutes.” left out

Row | IC50 (ETA receptor) | IC50 (ETB receptor) | IC50 (phosphodiesterase III) | Structure (SMILES) | inhibitory effect on phosphodiesterase III (phosphodiesterase III) | antagonism to endothelin receptors (endothelin receptors)
1 | 16.8 nM | 115 nM | – | CCOc1cccc(Cn2nc(C(=O)O)c3c2-c2ccc(OCc4cncnc4)cc2CC3)c1 [Example 14] | – | –
2 | 31 nM | 140 nM | – | COc1cccc(Cn2nc(C(=O)O)c3c2-c2ccc(OCc4cncnc4)cc2CC3)c1 [Example 2, 4,5-dihydro-1-(3-methoxybenzyl)-7-(5-pyrimidinylmethoxy)-[1H]-benz[g]indazole-3-carboxylic acid] | – | –
3 | 2.5 nM | 11.3 nM | 580 nM | CCOc1cccc(C(c2ccccn2)n2nc(C(=O)O)c3c2-c2ccc(OCc4cncnc4)cc2CC3)c1 (stereo not shown) [Example 70] | inhibitory effect on phosphodiesterase III | excellent antagonism to endothelin receptors
4 | 4.5 nM | 153 nM | 75 nM | CCOc1cccc(C(CC)n2nc(C(=O)O)c3c2-c2ccc(OCc4cncnc4)cc2CC3)c1 (stereo not drawn) [Example 34, 4,5-dihydro-1-(3-ethoxy-α-ethylbenzyl)-7-(5-pyrimidinylmethoxy)-[1H]-benz[g]indazole-3-carboxylic acid] | inhibitory effect on phosphodiesterase III | excellent antagonism to endothelin receptors
5 | 7.4 nM | 92 nM | – | CCOCC(c1cccc(OCC)c1)n1nc(C(=O)O)c2c1-c1ccc(OCc3cncnc3)cc1CC2 (stereo not drawn) [Example 41, 4,5-dihydro-1-(3-ethoxy-α-ethoxymethyl-benzyl)-7-(5-pyrimidinylmethoxy)-[1H]-benz[g]indazole-3-carboxylic acid] | – | –
